Source: patent publication US8324264B1, “Inhibitors of bacterial biofilms and related methods” (Sequoia Sciences, Inc., priority 2011, dated 2012)
Converted amounts (≈) assume the structure as drawn.

Assays:
P. aeruginosa biofilms = assay: Biofilm growth assay (spreading biofilm on semi-solid agar), P. aeruginosa; type: cell-based; conditions: biofilm growth assay, overnight 37° C., vs negative controls, Tables 1-5; for IC85: Pseudomonas aeruginosa, read-out: P. aeruginosa: concentration that reduces the area of the spreading biofilm by greater than or equal to 85%
Description: (§1) “Biofilm Growth Assay” refers to an assay performed on semi-solid agar surface where the bacteria collectively move out from an inoculation point. To those skilled in the art, the act of bacteria collectively moving out from an inoculation point on a semi-solid surface may be referred to as swarming or a spreading biofilm. (Anderson, et al Microbiology, 2003, 149, 37-46; Daniels, et al. FEMS Microbiology Reviews, 2004, 28, 261-289). The procedure to perform this assay is described in detail in the Examples. This type of surface motility by bacteria has been reported in the literature by those skilled in the art. […] These references are incorporated herein by reference in their entirety.
(§2) The biofilm growth assay was carried out to measure swarming or biofilm spreading on semi-solid agar media in round plates (for example, 100×15 mm), also referred to as Petri dishes. For E. coli, the plates contained LB medium with 0.6% agar and 0.5% glucose. P. aeruginosa plates were made with M8 agar supplemented with 0.2% glucose, 100 μM CaCl2, 1 mM MgSO4, and 0.5% Casamino acids. The agar plates of this assay consisted of 0.4% to 0.7% agar (Bacto or Noble agar), although other media may also be used as described in the literature and known to those skilled in the art. Test compounds at the desired concentration were added to the cooled, autoclaved media. Portions of the media were then poured into the plates (20 mL/plate), and the plates allowed to dry at room temperature for approximately 3 to 4 hours. Alternatively, however, plates may be dried in a laminar flow hood for approximately fifteen to twenty minutes. Overnight cultures were grown in a 37° C. shaker in LB (E. coli) or TSB (P. aeruginosa). Plates were inoculated by placing 5 μL of the appropriate overnight culture in the centers of the plates. The plates then were incubated overnight at 37° C. The area of the zone of spreading bacteria was then measured and replicates are averaged. Percent inhibition was calculated as 100×(area without compound−area with compound)/(area without compound). An active compound was considered that which reduces the area of the spreading biofilm compared to negative controls by greater than or equal to 85%. The values shown in Table 1 are the concentrations of compounds (μg/ml) tested in the biofilm growth assay that reduce the area of the spreading biofilm compared to negative controls by greater than or equal to 85% unless noted differently in Table 1. A > (“greater than” symbol) as used in Table 1 is well understood to those skilled in the art as an indication that the listed concentration was not effective at this concentration.
(§3) All of the compounds shown in Tables 2, 3, 4, and 5, below, were prepared semi-synthetically from oleanolic acid, except for Compounds 2 and 3. Compound 2 was prepared from ursolic acid. Compound 3 was prepared from hederagenin, but could also be prepared from an oleanolic acid analog with a hydroxyl at C23 or C24. These compounds were tested in the spreading biofilm assay according to the methods detailed in Example I, above. The values shown in Tables 2, 3, 4, and 5 are the concentrations of compounds tested in the biofilm growth assay that reduce the area of the spreading biofilm compared to negative controls by greater than or equal to 85%.

E. coli biofilms = assay: Biofilm growth assay (spreading biofilm on semi-solid agar), E. coli; type: cell-based; conditions: biofilm growth assay, overnight 37° C., vs negative controls, Tables 1-5; for IC85: Escherichia coli, read-out: E. coli: concentration that reduces the area of the spreading biofilm by greater than or equal to 85%
Description: as §1, §2, §3

## CC1(C)CC[C@]2(C(=O)O)CC[C@]3(C)C(=C(c4cncnc4)CC4[C@@]5(C)Cc6c(n[nH]c6N)C(C)(C)[C@@H]5CC[C@]43C)[C@@H]2C1 (stereo partly drawn) [Example 30, (4aS,6aS,6bR,8aR,13aR,15bS)-12-Amino-2,2,6a,6b,9,9,13a-heptamethyl-15-(pyrimidin-5-yl)-2,3,4,4a,5,6,6a,6b,7,8,8a,9,11,13,13a,13b,14,15b-octadecahydro-1H-chryseno[1,2-f]indazole-4-a-carboxylic acid]
P. aeruginosa biofilms
  P. aeruginosa: concentration that reduces the area of the spreading biofilm by greater than or equal to 85%: 2 µg/mL
E. coli biofilms
  E. coli: concentration that reduces the area of the spreading biofilm by greater than or equal to 85%: 1 µg/mL

## CC1(C)CC[C@]2(C(=O)O)CC[C@]3(C)C(=C(c4ccccc4N)CC4[C@@]5(C)Cc6c(n[nH]c6N)C(C)(C)C5CC[C@]43C)C2C1 (stereo partly drawn) [Example 23, (4aS,6aS,6bR,13aR)-12-Amino-15-(2-aminophenyl)-2,2,6a,6b,9,9,13a-heptamethyl-2,3,4,4a,5,6,6a,6b,7,8,8a,9,11,13,13a,13b,14,15b-octadecahydro-1H-chryseno[1,2-f]indazole-4-a-carboxylic acid]
P. aeruginosa biofilms
  IC85: 1 µg/mL (≈ 1.71 µM)
E. coli biofilms
  IC85: 2 µg/mL (≈ 3.42 µM)

## C[C@H]1[C@H](C)CC[C@]2(C(=O)O)CC[C@]3(C)C(=CC[C@@H]4[C@@]5(C)CC[C@H](O)C(C)(C)[C@@H]5CC[C@]43C)[C@H]12 [Ursolic acid, ursolic acid, reference compound]
P. aeruginosa biofilms
  IC85: 8 µg/mL (≈ 17.5 µM)
E. coli biofilms
  IC85: 8 µg/mL (≈ 17.5 µM)

## CC1(C)CC[C@]2(C(=O)O)CC[C@]3(C)C(=C(c4ccncc4)CC4[C@@]5(C)Cc6c(n[nH]c6N)C(C)(C)[C@@H]5CC[C@]43C)[C@@H]2C1 (stereo partly drawn) [Example 29, (4aS,6aS,6bR,8aR,13aR,15bS)-12-Amino-2,2,6a,6b,9,9,13a-heptamethyl-15-(pyridin-4-yl)-2,3,4,4a,5,6,6a,6b,7,8,8a,9,11,13,13a,13b,14,15b-octadecahydro-1H-chryseno[1,2-f]indazole-4-a-carboxylic acid]
P. aeruginosa biofilms
  P. aeruginosa: concentration that reduces the area of the spreading biofilm by greater than or equal to 85%: 1 µg/mL
E. coli biofilms
  E. coli: concentration that reduces the area of the spreading biofilm by greater than or equal to 85%: 1 µg/mL

## CN(C)c1ccc(C2=C3[C@@H]4CC(C)(C)CC[C@]4(C(=O)O)CC[C@@]3(C)[C@]3(C)CC[C@H]4C(C)(C)c5n[nH]c(N)c5C[C@]4(C)C3C2)cn1 (stereo partly drawn) [Example 44, (4aS,6aS,6bR,8aR,13aR,15bS)-12-Amino-15-(6-(dimethylamino)pyridin-3-yl)-2,2,6a,6b,9,9,13a-heptamethyl-2,3,4,4a,5,6,6a,6b,7,8,8a,9,11,13,13a,13b,14,15b-octadecahydro-1H-chryseno[1,2-f]indazole-4-a-carboxylic acid]
P. aeruginosa biofilms
  P. aeruginosa: concentration that reduces the area of the spreading biofilm by greater than or equal to 85%: 0.5 µg/mL
E. coli biofilms
  E. coli: concentration that reduces the area of the spreading biofilm by greater than or equal to 85%: 2 µg/mL

## C[C@H]1[C@H](C)CC[C@]2(C(=O)O)CC[C@]3(C)C(=CCC4[C@@]5(C)Cc6c(n[nH]c6N)C(C)(C)[C@@H]5CC[C@]43C)[C@H]12 (stereo partly drawn) [Example 2, (4aS,6aS,6bR,13aR)-12-Amino-2,2,6a,6b,9,9,13a-heptamethyl-2,3,4,4a,5,6,6a,6b,7,8,8a,9,11,13,13a,13b,14,15b-octadecahydro-1H-chryseno[1,2-f]indazole-4-a-carboxylic acid]
P. aeruginosa biofilms
  IC85: 0.5 µg/mL (≈ 1.01 µM)
E. coli biofilms
  IC85: 1 µg/mL (≈ 2.03 µM)

## CC1(C)CC[C@]2(C(=O)O)CC[C@]3(C)C(=C(c4ccc(N5CCOCC5)cc4)CC4[C@@]5(C)Cc6c(n[nH]c6N)C(C)(C)C5CC[C@]43C)C2C1 (stereo partly drawn) [Example 51, (4aS,6aS,6bR,13aR)-12-Amino-2,2,6a,6b,9,9,13a-heptamethyl-15-(4-morpholinophenyl)-2,3,4,4a,5,6,6a,6b,7,8,8a,9,11,13,13a,13b,14,15b-octadecahydro-1H-chryseno[1,2-f]indazole-4-a-carboxylic acid]
P. aeruginosa biofilms
  P. aeruginosa: concentration that reduces the area of the spreading biofilm by greater than or equal to 85%: 0.5 µg/mL
E. coli biofilms
  E. coli: concentration that reduces the area of the spreading biofilm by greater than or equal to 85%: 2 µg/mL

## CC1(C)CC[C@]2(c3nnc(S)[nH]3)CC[C@]3(C)C(=CCC4[C@@]5(C)Cc6c(n[nH]c6N)C(C)(C)C5CC[C@]43C)C2C1 (stereo partly drawn) [Compound 75, 5-((4aS,6aS,6bR,13aR)-12-Amino-2,2,6a,6b,9,9,13a-heptamethyl-2,3,4,4a,5,6,6a,6b,7,8,8a,9,11,13,13a,13b,14,15b-octadecahydro-1H-chryseno[1,2-f]indazol-4-a-yl)-4H-1,2,4-triazole-3-thiol]
P. aeruginosa biofilms
  P. aeruginosa: concentration that reduces the area of the spreading biofilm by greater than or equal to 85%: 0.5 µg/mL
E. coli biofilms
  E. coli: concentration that reduces the area of the spreading biofilm by greater than or equal to 85%: 1 µg/mL

## CC1(C)CC[C@]2(C(=O)O)CC[C@]3(C)C(=C(c4ccc(N)c(F)c4)CC4[C@@]5(C)Cc6c(n[nH]c6N)C(C)(C)C5CC[C@]43C)C2C1 (stereo partly drawn) [Example 31, (4aS,6aS,6bR,13aR)-12-Amino-15-(4-amino-3-fluorophenyl)-2,2,6a,6b,9,9,13a-heptamethyl-2,3,4,4a,5,6,6a,6b,7,8,8a,9,11,13,13a,13b,14,15b-octadecahydro-1H-chryseno[1,2-f]indazole-4-a-carboxylic acid]
P. aeruginosa biofilms
  P. aeruginosa: concentration that reduces the area of the spreading biofilm by greater than or equal to 85%: 0.5 µg/mL
E. coli biofilms
  E. coli: concentration that reduces the area of the spreading biofilm by greater than or equal to 85%: 1 µg/mL

## CC1=C2[C@@H]3CC(C)(C)CC[C@]3(C(=O)O)CC[C@@]2(C)[C@]2(C)CC[C@H]3C(C)(C)c4n[nH]c(N)c4C[C@]3(C)C2C1 (stereo partly drawn) [Example 4, (4aS,6aS,6bR,8aR,13aR,15bS)-12-Amino-2,2,6a,6b,9,9,13a,15-octamethyl-2,3,4,4a,5,6,6a,6b,7,8,8a,9,11,13,13a,13b,14,15b-octadecahydro-1H-chryseno[1,2-f]indazole-4-a-carboxylic acid]
P. aeruginosa biofilms
  IC85: 0.25 µg/mL (≈ 0.492 µM)
E. coli biofilms
  IC85: 1 µg/mL (≈ 1.97 µM)

## CC1(C)CC[C@]2(C(=O)O)CC[C@]3(C)C(=C(c4ccoc4CN4CCNCC4)CC4[C@@]5(C)Cc6c(n[nH]c6N)C(C)(C)[C@@H]5CC[C@]43C)[C@@H]2C1 (stereo partly drawn) [Example 35, (4aS,6aS,6bR,8aR,13aR,15bS)-12-Amino-2,2,6a,6b,9,9,13a-heptamethyl-15-(2-(piperazin-1-ylmethyl)furan-3-yl)-2,3,4,4a,5,6,6a,6b,7,8,8a,9,11,13,13a,13b,14,15b-octadecahydro-1H-chryseno[1,2-f]indazole-4-a-carboxylic acid]
P. aeruginosa biofilms
  P. aeruginosa: concentration that reduces the area of the spreading biofilm by greater than or equal to 85%: >1 µg/mL
E. coli biofilms
  E. coli: concentration that reduces the area of the spreading biofilm by greater than or equal to 85%: 1 µg/mL

## CC1(C)CC[C@]2(C(=O)O)CC[C@]3(C)C(=C(c4ccc(N5CCNCC5)cc4)CC4[C@@]5(C)Cc6c(n[nH]c6N)C(C)(C)C5CC[C@]43C)C2C1 (stereo partly drawn) [Example 50, (4aS,6aS,6bR,13aR)-12-Amino-2,2,6a,6b,9,9,13a-heptamethyl-15-(4-(piperazin-1-yl)phenyl)-2,3,4,4a,5,6,6a,6b,7,8,8a,9,11,13,13a,13b,14,15b-octadecahydro-1H-chryseno[1,2-f]indazole-4-a-carboxylic acid]
P. aeruginosa biofilms
  P. aeruginosa: concentration that reduces the area of the spreading biofilm by greater than or equal to 85%: 2 µg/mL
E. coli biofilms
  E. coli: concentration that reduces the area of the spreading biofilm by greater than or equal to 85%: 1 µg/mL

## Cn1cc(C2=C3[C@@H]4CC(C)(C)CC[C@]4(C(=O)O)CC[C@@]3(C)[C@]3(C)CC[C@H]4C(C)(C)c5n[nH]c(N)c5C[C@]4(C)C3C2)cn1 (stereo partly drawn) [Example 28, (4aS,6aS,6bR,8aR,13aR,15bS)-12-Amino-2,2,6a,6b,9,9,13a-heptamethyl-15-(1-methyl-1H-pyrazol-4-yl)-2,3,4,4a,5,6,6a,6b,7,8,8a,9,11,13,13a,13b,14,15b-octadecahydro-1H-chryseno[1,2-f]indazole-4-a-carboxylic acid]
P. aeruginosa biofilms
  P. aeruginosa: concentration that reduces the area of the spreading biofilm by greater than or equal to 85%: 1 µg/mL
E. coli biofilms
  E. coli: concentration that reduces the area of the spreading biofilm by greater than or equal to 85%: 2 µg/mL
